Non-standard residues stand in square brackets, D forms with d. Residues, ends and D or L forms follow the SMILES beside them. *: point of attachment. Bn = c1ccc(C*)cc1
Legend:
[1] = target: T1, endothelin receptor A (ETA) (Sus scrofa, UniProt Q29010); experiment: Assay of affinity for receptor (1): binding activity on ETA receptor, 125I-labeled endothelin-1, porcine heart membrane fraction; design: key: relative specific activity; reference cyclic pentapeptide ETA binding = 1.0; details: specific activity, taking the binding activity of control cyclo[-D-Glu-Ala-D-aIle-Leu-D-Trp-] on receptor A as 1.0, 25°C, 1 hour
T1 construct: A membrane fraction prepared from the porcine heart; from tissue; host or cells: porcine heart membrane fraction
T1 sequence (Q29010 21-427): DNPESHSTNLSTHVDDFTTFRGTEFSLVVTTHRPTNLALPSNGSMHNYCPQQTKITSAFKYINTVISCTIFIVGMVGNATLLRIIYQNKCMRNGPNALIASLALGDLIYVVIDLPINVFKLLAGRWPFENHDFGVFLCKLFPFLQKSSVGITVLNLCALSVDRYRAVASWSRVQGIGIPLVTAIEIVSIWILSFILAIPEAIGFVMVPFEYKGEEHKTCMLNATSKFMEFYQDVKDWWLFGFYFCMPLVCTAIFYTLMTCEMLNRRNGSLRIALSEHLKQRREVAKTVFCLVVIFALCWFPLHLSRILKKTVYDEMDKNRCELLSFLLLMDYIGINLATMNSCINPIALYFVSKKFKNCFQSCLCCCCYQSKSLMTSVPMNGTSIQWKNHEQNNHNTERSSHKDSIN
Procedure: Assay of Affinity for Receptor (1) ... Binding Activity on ETA Receptor
A membrane fraction prepared from the porcine heart was diluted to 0.15 mg/ml by using a buffer solution for assay, and 100 µl of the resulting suspension of the membrane fraction was poured into each assay tube to use for assay. To this suspension of the membrane fraction was added 2 µl of 5 nM ^125I-labeled endothelin-1 solution. Further, 3 µl of a test peptide solution was added thereto, followed by incubation at a temperature of 25°C for 1 hour. Then, the resulting suspension was diluted with 900 µl of the buffer solution for assay cooled with ice, and thereafter separated into a supernatant and a precipitate by centrifugation at 12,000 X g for 10 minutes. Cell membranes and an endothelin receptor A (ETA) embedded therein were contained in the precipitate, and radioactive iodine-labeled endothelin combined with the receptor was also recovered in the precipitate. Accordingly, the amount of radioactive iodine-labeled endothelin combined with the endothelin receptor A (ETA) was determined by measuring the amount of radioactive iodine contained in the precipitate with a gamma-ray counter. The cyclic pentapeptide described in Japanese Patent Application No. 2-413328/1990, cyclo[-D-Glu-Ala-D-aIle-Leu-D-Trp-], was used as a control compound. The numerical value of ETA shown in Table 1 is the value of specific activity, taking the binding activity of this cyclic pentapeptide on the receptor A as 1.0. The binding activity (IC50) of this cyclic pentapeptide on the ETA receptor is 2x10^-6 M.

ETB = ETB radio receptor assay *2, 125I-endothelin-1, guinea pig kidney crude membrane fraction; assay type: binding, Guinea pigs; details: relative activity, 37 °C, 90 minutes
Procedure: ETB Radio Receptor Assay *2
In the endothelin radio receptor assay, guinea pigs' kidneys were used. Guinea pigs (Std Hartrey, male 250 g, Japan SLC Ltd.) were made to have a cerebral concussion and sacrificed by bleeding from carotid arteries to pick up the kidneys and removed fat therefrom to prepare the kidneys. The obtained kidneys were sliced and homogenized by politron homogenizer in 20 ml of 50 mM Tris-HCl buffer [pH 7.4; 20 mM NaHCO3, 0.1 mM PMSF (Phenylmethylsulfonyl Fluoride), 1 mM EDTA (Ethylenediaminetetraacetic acid)] per one kidney. The homogenized kidney was applied to a centrifugation at 1,000 x g for 15 minutes and the supernatant was further applied to a centrifugation for 20 minutes at 30,000 x g. The resulting precipitate was twice washed with 50 mM Tris-HCl buffer (pH 7.4) containing 0.1 mM PMSF, 1 mM EDTA. The resultant was stored at -80 °C as a crude receptor membrane fraction and was used as the suspension in the following buffer when necessary.
740 Bq of ^125I-endothelin-1 (81.4 TBq/mmol, Du Pont, USA) as a radio ligand, the crude membrane fraction (2.1 µg protein) and samples were added to the following buffer. The reaction was performed at 37 °C, for 90 minutes in 0.2 ml of the buffer [50 mM Tris-HCl buffer (pH 7.4) containing 0.1 mM PMSF, 1 mM EDTA, 0.2% bovine serum albumin].
The reaction was stopped by fast filtration on a glass filter (GF/B, Wattman, USA) by Cell Harvestor (290 PHD, Cambridge-Technology, Great Britain), and the filter was three times washed with 50 mM Tris-HCl buffer (pH 7.4). Radio activity remained on the filter was assayed by a gamma counter.

| SMILES | Binding Activity on ET Receptor (R. act.) ETA [1] | Binding Activity on ET Receptor (R. act.) ETB*2 (ETB) |
| --- | --- | --- |
| CC(C)C[C@@H]1NC(=O)[C@@H](CC(C)C)NC(=O)[C@@H](CC(=O)O)NC(=O)[C@H](C)NC(=O)[C@@H](CC(=O)O)NC(=O)[C@@H](Cc2c[nH]c3ccccc23)NC1=O [Example 2, cyclo[-D-Asp-Ala-D-Asp-D-Leu-Leu-D-Trp-]] (cyclo(A[dD][dL]L[dW][dD])) | 3.7 | 3.1 |
| CC(C)C[C@@H]1NC(=O)[C@@H](CC(C)C)NC(=O)[C@H](CCC(=O)O)NC(=O)[C@H](C)NC(=O)[C@@H](CC(=O)O)NC(=O)[C@@H](Cc2c[nH]c3ccccc23)NC1=O [Example 3, cyclo[-D-Asp-Ala-Glu-D-Leu-Leu-D-Trp-]] (cyclo(AE[dL]L[dW][dD])) | 7.9 | 23 |
| CC(C)C[C@@H]1NC(=O)[C@@H](CC(C)C)NC(=O)[C@@H](CCC(=O)O)NC(=O)[C@H](C)NC(=O)[C@@H](CC(=O)O)NC(=O)[C@@H](Cc2c[nH]c3ccccc23)NC1=O [Example 4, cyclo[-D-Asp-Ala-D-Glu-D-Leu-Leu-D-Trp-]] (cyclo(A[dE][dL]L[dW][dD])) | 2.3 | 1.4 |
| CC(C)C[C@@H]1NC(=O)[C@@H](CC(C)C)NC(=O)[C@H](C)NC(=O)CNC(=O)[C@@H](CC(=O)O)NC(=O)[C@@H](Cc2c[nH]c3ccccc23)NC1=O [Example 5, cyclo[-D-Asp-Gly-Ala-D-Leu-Leu-D-Trp-]] (cyclo(A[dL]L[dW][dD]G)) | 1.3 | – |
| CC(C)C[C@@H]1NC(=O)[C@@H](CC(C)C)NC(=O)[C@H](C)NC(=O)[C@H](CC(=O)O)NC(=O)[C@@H](CC(=O)O)NC(=O)[C@@H](Cc2c[nH]c3ccccc23)NC1=O [Example 6, cyclo[-D-Asp-Asp-Ala-D-Leu-Leu-D-Trp-]] (cyclo(A[dL]L[dW][dD]D)) | 6.0 | 7.1 |
| CC(C)C[C@@H]1NC(=O)[C@@H](CC(C)C)NC(=O)[C@H](C)NC(=O)[C@H](CCC(=O)O)NC(=O)[C@@H](CC(=O)O)NC(=O)[C@@H](Cc2c[nH]c3ccccc23)NC1=O [Example 7, cyclo[-D-Asp-Glu-Ala-D-Leu-Leu-D-Trp-]] (cyclo(A[dL]L[dW][dD]E)) | 6.5 | 7.1 |
| CC(C)C[C@@H]1NC(=O)[C@@H](CC(C)C)NC(=O)[C@H](CC(=O)O)NC(=O)[C@@H](C)NC(=O)[C@@H](CC(=O)O)NC(=O)[C@@H](Cc2c[nH]c3ccccc23)NC1=O [Example 15, Cyclo[-D-Asp-D-Ala-Asp-D-Leu-Leu-D-Trp-]] (cyclo(D[dL]L[dW][dD][dA])) | 5.7 | 7.7 |
| CC(C)C[C@@H]1NC(=O)[C@@H](CC(C)C)NC(=O)[C@H](CC(=O)O)NC(=O)[C@H](C(C)C)NC(=O)[C@@H](CC(=O)O)NC(=O)[C@@H](Cc2c[nH]c3ccccc23)NC1=O [Example 17, Cyclo[-D-Asp-Val-Asp-D-Leu-Leu-D-Trp-]] (cyclo(D[dL]L[dW][dD]V)) | 3.7 | 22 |
| CC(C)C[C@@H]1NC(=O)[C@@H](CC(C)C)NC(=O)[C@H](CC(=O)O)NC(=O)[C@H](CC(C)C)NC(=O)[C@@H](CC(=O)O)NC(=O)[C@@H](Cc2c[nH]c3ccccc23)NC1=O [Example 18, Cyclo[-D-Asp-Leu-Asp-D-Leu-Leu-D-Trp-]] (cyclo(D[dL]L[dW][dD]L)) | 13 | 2.2 |
| CC(C)C[C@@H]1NC(=O)[C@@H](CC(C)C)NC(=O)[C@H](CC(=O)O)NC(=O)[C@H](Cc2ccccc2)NC(=O)[C@@H](CC(=O)O)NC(=O)[C@@H](Cc2c[nH]c3ccccc23)NC1=O [Example 19, Cyclo[-D-Asp-Phe-Asp-D-Leu-Leu-D-Trp-]] (cyclo(D[dL]L[dW][dD]F)) | 8.3 | 7.1 |
| CC(C)C[C@@H]1NC(=O)[C@@H](CC(C)C)NC(=O)[C@H](CC(=O)O)NC(=O)[C@H](COCc2ccccc2)NC(=O)[C@@H](CC(=O)O)NC(=O)[C@@H](Cc2c[nH]c3ccccc23)NC1=O [Example 20, Cyclo[-D-Asp-Ser(Bzl)-Asp-D-Leu-Leu-D-Trp-]] (cyclo(D[dL]L[dW][dD]S(Bn))) | 14 | 13 |
| CC(C)C[C@@H]1NC(=O)[C@@H](CC(C)C)NC(=O)[C@H](CC(=O)O)NC(=O)[C@H]2CCCN2C(=O)[C@@H](CC(=O)O)NC(=O)[C@@H](Cc2c[nH]c3ccccc23)NC1=O [Example 24, Cyclo[-D-Asp-D-Pro-Asp-D-Leu-Leu-D-Trp-]] (cyclo(D[dL]L[dW][dD][dP])) | 1.7 | – |
| CC(C)C[C@@H]1NC(=O)[C@@H](CC(C)C)NC(=O)[C@H](C)NC(=O)[C@@H](CC(=O)O)NC(=O)[C@@H](CC(=O)O)NC(=O)[C@@H](Cc2c[nH]c3ccccc23)NC1=O [Example 27, Cyclo[-D-Asp-D-Asp-Ala-D-Leu-Leu-D-Trp-]] (cyclo(A[dL]L[dW][dD][dD])) | 5.7 | 4.8 |
| CC(C)C[C@@H]1NC(=O)[C@@H](CC(C)C)NC(=O)[C@H](C)NC(=O)[C@@H](CCC(=O)O)NC(=O)[C@@H](CC(=O)O)NC(=O)[C@@H](Cc2c[nH]c3ccccc23)NC1=O [Example 28, Cyclo[-D-Asp-D-Glu-Ala-D-Leu-Leu-D-Trp-]] (cyclo(A[dL]L[dW][dD][dE])) | 5.7 | 5.3 |
| CC(C)C[C@@H]1NC(=O)[C@@H](CC(C)C)NC(=O)[C@@H](C)NC(=O)[C@H](CC(=O)O)NC(=O)[C@@H](CC(=O)O)NC(=O)[C@@H](Cc2c[nH]c3ccccc23)NC1=O [Example 29, Cyclo[-D-Asp-Asp-D-Ala-D-Leu-Leu-D-Trp-]] (cyclo(D[dA][dL]L[dW][dD])) | 2.6 | 2.4 |
| CC(C)C[C@@H]1NC(=O)[C@@H](CC(C)C)NC(=O)[C@@H]2CCCN2C(=O)[C@H](CC(=O)O)NC(=O)[C@@H](CC(=O)O)NC(=O)[C@@H](Cc2c[nH]c3ccccc23)NC1=O [Example 30, Cyclo[-D-Asp-Asp-Pro-D-Leu-Leu-D-Trp-]] (cyclo(DP[dL]L[dW][dD])) | 4.4 | 9.1 |
| CC(C)C[C@@H]1NC(=O)[C@@H](CC(C)C)NC(=O)CNC(=O)[C@H](C)NC(=O)[C@@H](CCC(=O)O)NC(=O)[C@@H](Cc2c[nH]c3ccccc23)NC1=O [Example 40, Cyclo[-D-Glu-Ala-Gly-D-Leu-Leu-D-Trp-]] (cyclo(AG[dL]L[dW][dE])) | 1.4 | – |
| CC(C)C[C@H]1NC(=O)[C@H](CC(=O)O)NC(=O)[C@H](C)NC(=O)[C@@H](CC(=O)O)NC(=O)[C@@H](Cc2c[nH]c3ccccc23)NC(=O)[C@H](Cc2ccccc2)NC1=O [Example 57, Cyclo[-D-Asp-Ala-Asp-D-Leu-Phe-D-Trp-]] (cyclo(AD[dL]F[dW][dD])) | – | 2.0 |
